Earlier results in patent US20200138845A1, “Combination Drug Therapy” (ViiV Healthcare Company, priority 2017, published 2020).

Tested on: HIV-1 strains
Conditions: antiviral activity against a broad range of HIV-1 strains

Structure (SMILES): C[C@H]1CO[C@@H]2Cn3cc(C(=O)NCc4ccc(F)cc4F)c(=O)c(O)c3C(=O)N12 [Cabotegravir, cabotegravir]
- potency: subnanomolar
